Numbering of substitutions follows the chain as printed. Where two headings read alike, the source gives them in different places.
Tests used:
[1] = target: T1, SLCO1B1*15 (N130D and V174A) (Homo sapiens, UniProt Q9Y6L6, N130D/V174A); details: Xenopus oocytes, among the variants examined; cited from earlier work
T1 sequence (Q9Y6L6 1-691 N130D/V174A): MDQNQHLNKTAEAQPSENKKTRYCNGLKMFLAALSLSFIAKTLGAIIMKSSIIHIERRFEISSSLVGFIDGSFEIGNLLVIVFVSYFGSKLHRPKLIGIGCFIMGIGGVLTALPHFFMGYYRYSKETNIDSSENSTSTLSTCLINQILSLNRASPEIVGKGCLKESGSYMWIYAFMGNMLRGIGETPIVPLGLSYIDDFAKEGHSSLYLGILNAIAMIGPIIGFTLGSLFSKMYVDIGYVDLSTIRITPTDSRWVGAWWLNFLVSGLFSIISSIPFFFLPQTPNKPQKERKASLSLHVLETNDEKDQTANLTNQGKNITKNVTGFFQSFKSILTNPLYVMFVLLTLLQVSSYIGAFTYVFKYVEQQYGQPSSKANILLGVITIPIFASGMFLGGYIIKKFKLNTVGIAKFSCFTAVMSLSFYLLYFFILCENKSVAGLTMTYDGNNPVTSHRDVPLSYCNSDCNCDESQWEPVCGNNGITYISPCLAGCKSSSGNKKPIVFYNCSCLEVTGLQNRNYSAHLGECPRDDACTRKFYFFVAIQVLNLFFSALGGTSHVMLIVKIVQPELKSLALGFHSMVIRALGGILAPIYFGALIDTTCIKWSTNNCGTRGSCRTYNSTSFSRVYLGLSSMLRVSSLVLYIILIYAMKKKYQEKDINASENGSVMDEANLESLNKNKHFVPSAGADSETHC

OATP1B1 = target: T2, OATP1B1 (Homo sapiens, UniProt Q9Y6L6); details: cited from earlier work; for transport activity by OATP1B1: OATP1B1*1a and three common variants
T2 construct: expressed in transfected cells; host or cells: HEK293 cells (stably transfected); Xenopus oocytes
T2 sequence (Q9Y6L6 1-691): T1 sequence (Q9Y6L6 1-691 N130D/V174A) with D130N, A174V

[2] = Irinotecan and metabolite AUC by ABCC2 3972C>T genotype in cancer patients
Description: Sixty-four adults (48 Caucasians, 10 African-Americans, 4 Hispanics, and 2 others) with refractory solid tumors took part in the pharmacogenetic study.

[3] = after intra peritoneal administration of irinotecan; cited from earlier work
[4] = cited from earlier work
[5] = cited from earlier work; remark: listed apart in the source
[6] = CPT-11 pharmacokinetics by SLCO1B1*5 genotype in patients; details: human, in vivo, intravenous
Description: Six SNPs in ABCC2 were genotyped [−1549G>A, −1019A>G, −24C>T, 1249G>A, intron 27 −34C>T, 3972C>T] and haplotypes were estimated. Two SNPs in SLCO1B1 [*1b (388A>G) and *5 (521T>C)] were also genotyped.

Question: With C[C@]12CC[C@@H]3c4ccc(OS(=O)(=O)O)cc4CC[C@H]3[C@@H]1CCC2=O [estrone-3-sulfate] as the compound, how does the “transport activity of variant SLCO1B1*15” value [1] read?
Answer: The value was “decreased transport activities”.

Question: Which “transport activity by OATP1B1” value (OATP1B1) does the source give for CCc1c2c(nc3ccc(O)cc13)-c1cc3c(c(=O)n1C2)COC(=O)[C@]3(O)CC [SN-38, 7-ethyl-10-hydroxycamptothecin] here?
Answer: Its value is “transport activity for SN-38 was observed”.

Question: And the “effect on SLCO1B1-mediated uptake of [(3)H]estrone-3-sulfate” value (OATP1B1)?
Answer: Its value is “significant inhibitory effect”.

Question: What about the “AUC versus ABCC2 3972C>T genotype (TT compared to CT and CC)” value ([2]; 350 mg/m^2 IV irinotecan, patients with 6/6 and 6/7 UGT1A1 genotype (n=54)) of the same compound?
Answer: Its value is “No significant correlation”.

Question: And the “tissue accumulation of SN-38” value [3]?
Answer: Its value is “accumulate in the intestine”.

Question: What about the “transport activity of variant SLCO1B1*15” value [1] of the same compound?
Answer: The value was “decreased transport activities”.

Question: Which “AUC ratio APC/irinotecan in TT patients compared to CT and CC patients” value ([2]; 350 mg/m^2 IV irinotecan) does the source give for CCc1c2c(nc3ccc(OC(=O)N4CCC(NCCCCC(=O)O)CC4)cc13)-c1cc3c(c(=O)n1C2)COC(=O)[C@]3(O)CC [APC] here?
Answer: The value was “Higher values of AUC ratios”.

Question: With CC[C@H](C)C(=O)O[C@H]1C[C@H](O)C=C2C=C[C@H](C)[C@H](CC[C@@H](O)C[C@@H](O)CC(=O)O)[C@H]21 [pravastatin] as the compound, how does the “mean pravastatin AUC0-12 higher compared to non-carriers” value ([4]; heterozygous carriers of *15B (388A>G and 521T>C)) read?
Answer: The value was 93%.

Question: And the “mean pravastatin AUC0-12 higher compared to non-carriers” value ([4]; heterozygous carriers of *17 (-11187G>A, 388A>G and 521T>C))?
Answer: The value was 130%.

Question: What about the “mean pravastatin AUC0-12 higher compared to reference genotype” value ([4]; subjects with 521TC genotype) of the same compound?
Answer: Its value is 106%.

Question: What about the “mean pravastatin AUC0-12 higher compared to reference genotype” value ([4]; subjects with -11187GA genotype) of the same compound?
Answer: The value was 98%.

Question: What about the “transport activity of variant SLCO1B1*15” value [1] of the same compound?
Answer: Its value is “decreased transport activities”.

Question: Which results are given for CCc1c2c(nc3ccc(OC(=O)N4CCC(N5CCCCC5)CC4)cc13)-c1cc3c(c(=O)n1C2)COC(=O)[C@]3(O)CC [irinotecan]?
Answer: transport activity by OATP1B1 (OATP1B1): not transported; AUC in ABCC2 3972 TT patients compared to CT and CC patients ([2]; 350 mg/m^2 IV dose of irinotecan, 64 patients): higher AUC values; patients experiencing grade 3-4 neutropenia ([5]; both weekly and three-weekly regimens): 30-40%; patients with grade 3-4 diarrhea ([5]; early single agent trials, dose limiting): about one third; frequency of grade 3-4 diarrhea ([5]; three-weekly regimen): 19%; mortality rate ([5]; three-weekly single agent regimen): 1.6%; frequency of grade 3-4 diarrhea ([5]; weekly schedule): 36%; mortality rate ([5]; weekly single agent regimen): 5.3%; AUC ([6]; 350 mg/m^2, patients with SLCO1B1*5 CT+CC genotype): 29500 ± 8800 ng·h/mL; AUC ([6]; 350 mg/m^2, patients with SLCO1B1*5 TT genotype): 22300 ± 5100 ng·h/mL

Question: With CCc1c2c(nc3ccc(O[C@@H]4O[C@H](C(=O)O)[C@@H](O)[C@H](O)[C@H]4O)cc13)-c1cc3c(c(=O)n1C2)COC(=O)[C@]3(O)CC [SN-38G, 10O-glucuronyl-SN-38] as the compound, how does the “transport activity by OATP1B1” value (OATP1B1) read?
Answer: The value was “not transported”.

From patent US20090017452A1, “METHODS AND COMPOSITIONS RELATING TO THE PHARMACOGENETICS OF DIFFERENT GENE VARIANTS” (UNIVERSITY OF CHICAGO, priority 2004, published 2009)
